Measured values from patent US11083725B2 (priority 2014, dated 2021).

Tested on: NHBE cells
Test: Biolog metabolic array: substrate use by NHBE cells with or without CA09 infection
Type: cell-based, human
Settings: for Substrate use, 590 nm absorbance normalized to zero hour, 1 hr: Biolog PMM2, 1 hr; for Substrate use, 590 nm absorbance normalized to zero hour, 5 hr: Biolog PMM2, 5 hr; for Substrate use, 590 nm absorbance normalized to zero hour, 7 hr: Biolog PMM2, 7 hr; for Substrate use, 590 nm absorbance normalized to zero hour, 0 hr: Biolog PMM2, 0 hr
[1] = Control (uninfected) NHBE cells
[2] = Virus (CA09, MOI 1) infected NHBE cells
[3] = Virus (CA09-infected, MOI 1) NHBE cells
[4] = Virus: CA09-infected NHBE cells, MOI 1, Biolog PMM2
[5] = Virus (CA09-infected NHBE cells, MOI 1)

In the case of `OC[C@@H](O)[C@H](O)[C@@H](O)CO` [Xylitol], the “590 nm absorbance normalized to zero hour (substrate use), 1 hr” value [1] is reported as 1.02, the “590 nm absorbance normalized to zero hour (substrate use), 2 hr” value (from here on “590 nm absorbance normalized … 2 hr”) [1] is reported as 1.53 and the “590 nm absorbance normalized to zero hour (substrate use), 3 hr” value (shortened to “590 nm absorbance normalized … 3 hr”) [1] is reported as 1.57. The “590 nm absorbance normalized to zero hour (substrate use), 4 hr” value (“590 nm absorbance normalized … 4 hr” below) [1] was 1.01, the “590 nm absorbance normalized to zero hour (substrate use), 6 hr” value (from here on “590 nm absorbance normalized … 6 hr”) [1] was 0.40 and the “590 nm absorbance normalized to zero hour (substrate use), 8 hr” value (shortened to “590 nm absorbance normalized … 8 hr”) [1] was 1.49. For the same molecule, the “590 nm absorbance normalized to zero hour (substrate use), 9 hr” value (“590 nm absorbance normalized … 9 hr” below) [1] was 1.02, the “590 nm absorbance normalized to zero hour (substrate use), 10 hr” value (from here on “590 nm absorbance normalized … 10 hr”) [1] was 0.97 and the “590 nm absorbance normalized to zero hour (substrate use), 11 hr” value (“590 nm absorbance normalized … 11 hr” below) [1] was 0.97. The “Substrate use, 590 nm absorbance normalized to zero hour, 1 hr” value [1] was 1.02, the “Substrate use, 590 nm absorbance normalized to zero hour, 5 hr” value [1] was 1.51 and the “Substrate use, 590 nm absorbance normalized to zero hour, 7 hr” value [1] was 1.01. The “Substrate use, 590 nm absorbance normalized to zero hour, 1 hr” value [2] was 1.69, the “Substrate use, 590 nm absorbance normalized to zero hour, 5 hr” value [2] was 3.95 and the “Substrate use, 590 nm absorbance normalized to zero hour, 7 hr” value [2] was 4.50. For the same molecule, the “590 nm absorbance normalized to zero hour (substrate use), 1 hr” value [3] was 1.69, the “590 nm absorbance normalized … 2 hr” value [3] was 2.39 and the “590 nm absorbance normalized … 3 hr” value [3] was 3.14. For the same molecule, the “590 nm absorbance normalized … 4 hr” value [3] was 3.34, the “590 nm absorbance normalized … 6 hr” value [3] was 4.25 and the “590 nm absorbance normalized … 8 hr” value [3] was 4.55. For the same molecule, the “590 nm absorbance normalized … 9 hr” value [3] was 5.13, the “590 nm absorbance normalized … 10 hr” value [3] was 4.85 and the “590 nm absorbance normalized … 11 hr” value [3] was 5.48.

`OC[C@H]1O[C@@H]2O[C@H]3[C@H](O)[C@@H](O)[C@@H](O[C@H]4[C@H](O)[C@@H](O)[C@@H](O[C@H]5[C@H](O)[C@@H](O)[C@@H](O[C@H]6[C@H](O)[C@@H](O)[C@@H](O[C@H]7[C@H](O)[C@@H](O)[C@@H](O[C@H]1[C@H](O)[C@H]2O)O[C@@H]7CO)O[C@@H]6CO)O[C@@H]5CO)O[C@@H]4CO)O[C@@H]3CO` [a-Cyclo-dextrin] was tested, and the “590 nm absorbance normalized to zero hour (substrate use), 0 hr” value [1] was 1.00, the “590 nm absorbance normalized to zero hour (substrate use), 1 hr” value [1] was 1.89 and the “590 nm absorbance normalized … 2 hr” value [1] was 2.66. For the same molecule, the “590 nm absorbance normalized … 3 hr” value [1] was 3.24, the “590 nm absorbance normalized … 4 hr” value [1] was 3.50 and the “590 nm absorbance normalized … 6 hr” value [1] was 4.31. The “590 nm absorbance normalized … 8 hr” value [1] was 5.25, the “590 nm absorbance normalized … 9 hr” value [1] was 5.99 and the “590 nm absorbance normalized … 10 hr” value [1] was 6.37. For the same molecule, the “590 nm absorbance normalized … 11 hr” value [1] was 5.86, the “Substrate use, 590 nm absorbance normalized to zero hour, 0 hr” value [1] was 1.00 and the “Substrate use, 590 nm absorbance normalized to zero hour, 1 hr” value [1] was 1.89. The “Substrate use, 590 nm absorbance normalized to zero hour, 5 hr” value [1] was 4.31, the “Substrate use, 590 nm absorbance normalized to zero hour, 7 hr” value [1] was 4.96 and the “590 nm absorbance normalized to zero hour (substrate use), 0 hr” value [3] was 1.00. For the same molecule, the “590 nm absorbance normalized to zero hour (substrate use), 1 hr” value [3] was 1.86, the “590 nm absorbance normalized … 2 hr” value [3] was 2.62 and the “590 nm absorbance normalized … 3 hr” value [3] was 2.99. The “590 nm absorbance normalized … 4 hr” value [3] was 3.18, the “590 nm absorbance normalized to zero hour (substrate use), 5 hr” value [3] was 3.75 and the “590 nm absorbance normalized … 6 hr” value [3] was 4.06. For the same molecule, the “590 nm absorbance normalized to zero hour (substrate use), 7 hr” value [3] was 4.29, the “590 nm absorbance normalized … 8 hr” value [3] was 4.56 and the “590 nm absorbance normalized … 9 hr” value [3] was 4.96. For the same molecule, the “590 nm absorbance normalized … 10 hr” value [3] was 5.19, the “590 nm absorbance normalized … 11 hr” value [3] was 4.09 and the “590 nm absorbance normalized to zero hour (substrate use), 0 hr” value [4] was 1.00. The “590 nm absorbance normalized to zero hour (substrate use), 1 hr” value [4] was 1.86, the “590 nm absorbance normalized … 2 hr” value [4] was 2.62 and the “590 nm absorbance normalized … 3 hr” value [4] was 2.99. The “590 nm absorbance normalized … 4 hr” value [4] was 3.18, the “590 nm absorbance normalized to zero hour (substrate use), 5 hr” value [4] was 3.75 and the “590 nm absorbance normalized … 6 hr” value [4] was 4.06. For the same molecule, the “590 nm absorbance normalized to zero hour (substrate use), 7 hr” value [4] was 4.29, the “590 nm absorbance normalized … 8 hr” value [4] was 4.56 and the “590 nm absorbance normalized … 9 hr” value [4] was 4.96. For the same molecule, the “590 nm absorbance normalized … 10 hr” value [4] was 5.19 and the “590 nm absorbance normalized … 11 hr” value [4] was 4.09.

For `OC[C@H]1O[C@@H](O[C@H]2[C@H](O)[C@@H](O)[C@@H](O)O[C@@H]2CO)[C@H](O)[C@@H](O)[C@H]1O` [a-D-Lactose], the “590 nm absorbance normalized to zero hour (substrate use), 0 hr” value [1] was 1.00, the “590 nm absorbance normalized to zero hour (substrate use), 1 hr” value [1] was 0.44 and the “590 nm absorbance normalized … 2 hr” value [1] was 0.58. For the same molecule, the “590 nm absorbance normalized … 3 hr” value [1] was 0.65, the “590 nm absorbance normalized … 4 hr” value [1] was 0.69 and the “590 nm absorbance normalized … 6 hr” value [1] was 0.63. For the same molecule, the “590 nm absorbance normalized … 8 hr” value [1] was 0.94, the “590 nm absorbance normalized … 9 hr” value [1] was 1.01 and the “590 nm absorbance normalized … 10 hr” value [1] was 1.02. The “590 nm absorbance normalized … 11 hr” value [1] was 0.92, the “Substrate use, 590 nm absorbance normalized to zero hour, 0 hr” value [1] was 1.00 and the “Substrate use, 590 nm absorbance normalized to zero hour, 1 hr” value [1] was 0.44. The “Substrate use, 590 nm absorbance normalized to zero hour, 5 hr” value [1] was 0.82, the “Substrate use, 590 nm absorbance normalized to zero hour, 7 hr” value [1] was 0.88 and the “590 nm absorbance normalized to zero hour (substrate use), 0 hr” value [5] was 1.00. The “590 nm absorbance normalized to zero hour (substrate use), 1 hr” value [5] was 0.17, the “590 nm absorbance normalized … 2 hr” value [5] was 0.22 and the “590 nm absorbance normalized … 3 hr” value [5] was 0.26. The “590 nm absorbance normalized … 4 hr” value [5] was 0.28, the “590 nm absorbance normalized to zero hour (substrate use), 5 hr” value [5] was 0.33 and the “590 nm absorbance normalized … 6 hr” value [5] was 0.35. For the same molecule, the “590 nm absorbance normalized to zero hour (substrate use), 7 hr” value [5] was 0.37, the “590 nm absorbance normalized … 8 hr” value [5] was 0.39 and the “590 nm absorbance normalized … 9 hr” value [5] was 0.42. For the same molecule, the “590 nm absorbance normalized … 10 hr” value [5] was 0.41, the “590 nm absorbance normalized … 11 hr” value [5] was 0.39 and the “590 nm absorbance normalized to zero hour (substrate use), 0 hr” value [4] was 1.00. The “590 nm absorbance normalized to zero hour (substrate use), 1 hr” value [4] was 0.17, the “590 nm absorbance normalized … 2 hr” value [4] was 0.22 and the “590 nm absorbance normalized … 3 hr” value [4] was 0.26. The “590 nm absorbance normalized … 4 hr” value [4] was 0.28, the “590 nm absorbance normalized to zero hour (substrate use), 5 hr” value [4] was 0.33 and the “590 nm absorbance normalized … 6 hr” value [4] was 0.35. For the same molecule, the “590 nm absorbance normalized to zero hour (substrate use), 7 hr” value [4] was 0.37, the “590 nm absorbance normalized … 8 hr” value [4] was 0.39 and the “590 nm absorbance normalized … 9 hr” value [4] was 0.42. For the same molecule, the “590 nm absorbance normalized … 10 hr” value [4] was 0.41 and the “590 nm absorbance normalized … 11 hr” value [4] was 0.39.
